Data from ChEMBL document CHEMBL6074715, “Discovery of pyridine-based derivatives as FLT3 inhibitors for the treatment of acute myeloid leukemia” (Eur J Med Chem, 2025).
Activity calls are given as the source filed them. No cut-off for these calls is given here.

Legend:
[1] = Cmax in Sprague-Dawley rat at 5 mg/kg, iv measured upto 48 hrs by LC-MS/MS analysis; type: ADME, organism-based; settings: in vivo
MOLM-14 = test: Antiproliferative activity against human MOLM-14 cells harbouring FLT3-ITD assessed as inhibition of cell growth measured after 72 hrs by Celltiter-glo luminescent cell viability assay; type: functional, cell-based; settings: MOLM-14, 72 h
THP-1 = test: Antiproliferative activity against human THP-1 cells harbouring wild type FLT3 assessed as inhibition of cell growth measured after 72 hrs by Celltiter-glo luminescent cell viability assay; type: functional, cell-based; settings: THP-1, 72 h
MOLM-13 [2] = test: Inhibition of STAT5 phosphorylation in human MOLM-13 cells incubated for 2 hrs by Western blot analysis; type: cell-based; settings: dose 0.04-5 µM
MOLM-13 [3] = test: Effect on STAT5 level in human MOLM-13 cells at 0.04 to 5 nM measured after 2 hrs by Western blot analysis; type: functional, cell-based; settings: dose 0.04-5 nM
MOLM-13 [4] = test: Induction of cell cycle arrest in human MOLM-13 cells assessed as accumulation of cells at G1 phase at 0.3 uM measured after 48 hrs by PI staining based flow cytometry analysis (reference value: 42.8%); type: functional
MOLM-13 [5] = test: Induction of cell cycle arrest in human MOLM-13 cells assessed as accumulation of cells at G2 phase at 1 uM measured after 48 hrs by PI staining based flow cytometry analysis (reference value: 12.5%); type: functional
MOLM-13 [6] = test: Induction of apoptosis in human MOLM-13 cells assessed as viable cells at 3 uM measured after 48 hrs by annexin-V and PI staining based flow cytometry analysis (reference value: 88.7%); type: functional; settings: read-out: Activity
MOLM-13 [7] = test: Induction of apoptosis in human MOLM-13 cells assessed as early apoptotic cells at 1 uM measured after 48 hrs by annexin-V and PI staining based flow cytometry analysis (reference value: 8.92%); type: functional
MOLM-13 [8] = test: Induction of apoptosis in human MOLM-13 cells assessed as late apoptotic cells at 1 uM measured after 48 hrs by annexin-V and PI staining based flow cytometry analysis (reference value: 2.28%); type: functional
[9] = AUC (0 to t) in Sprague-Dawley rat at 5 mg/kg, iv measured upto 48 hrs by LC-MS/MS analysis; type: ADME, organism-based; settings: in vivo
[10] = MRT (0 to t) in Sprague-Dawley rat at 5 mg/kg, iv measured upto 48 hrs by LC-MS/MS analysis; type: ADME, organism-based; settings: in vivo
[11] = Cmax in Sprague-Dawley rat at 20 mg/kg, po measured upto 48 hrs by LC-MS/MS analysis; type: ADME, organism-based; settings: in vivo
[12] = Tmax in Sprague-Dawley rat at 20 mg/kg, po measured upto 48 hrs by LC-MS/MS analysis; type: ADME, organism-based; settings: in vivo
[13] = AUC (0 to t) in Sprague-Dawley rat at 20 mg/kg, po measured upto 48 hrs by LC-MS/MS analysis; type: ADME, organism-based; settings: in vivo
[14] = MRT (0 to t) in Sprague-Dawley rat at 20 mg/kg, po measured upto 48 hrs by LC-MS/MS analysis; type: ADME, organism-based; settings: in vivo
[15] = Oral bioavailability in Sprague-Dawley rat at 20 mg/kg measured upto 48 hrs by LC-MS/MS analysis; type: ADME, organism-based; settings: in vivo
MOLM-13 [16] = test: Antitumor activity against human MOLM-13 cells xenografted in female NSG mouse model assessed as delay in tumor growth at 20 to 40 mg/kg/day, po measured after 21 days; type: functional, organism-based; settings: dose 20-40 mg/kg/day, time 21.0 day
[17] = Toxicity in female NSG mouse assessed as effect on heart at 20 to 40 mg/kg, po measured after 21 days by H and E staining based analysis; type: organism-based; settings: in vivo, 504 h, dose 20-40 mg/kg, time 21 day
[18] = Toxicity in female NSG mouse assessed as effect on liver at 20 to 40 mg/kg, po measured after 21 days by H and E staining based analysis; type: organism-based; settings: in vivo, 504 h, dose 20-40 mg/kg, time 21 day
[19] = Toxicity in female NSG mouse assessed as effect on kidney at 20 to 40 mg/kg, po measured after 21 days by H and E staining based analysis; type: organism-based; settings: in vivo, 504 h, dose 20-40 mg/kg, time 21 day
[20] = molecular target: T1, Vascular endothelial growth factor receptor 1 (Homo sapiens, UniProt P17948); test: Inhibition of human FLT assessed as residual activity at 1 uM by Eurofins kinase assay relative to control
[21] = molecular target: Macrophage colony-stimulating factor 1 receptor (Homo sapiens, UniProt P07333); test: Inhibition of human FMS assessed as residual activity at 1 uM by Eurofins kinase assay relative to control
[22] = molecular target: Serine/threonine-protein kinase B-raf (Homo sapiens) (UniProt P15056); test: Inhibition of human BRAF at 1 uM by Eurofins kinase assay
[23] = molecular target: Cyclin-dependent kinase 2/cyclin A (Homo sapiens) (UniProt P24941+P20248+P78396); test: Inhibition of human CDK2/cyclinA at 1 uM by Eurofins kinase assay; type: protein-complex assay
[24] = molecular target: Epithelial discoidin domain-containing receptor 1 (Homo sapiens) (UniProt Q08345); test: Inhibition of human DDR1 at 1 uM by Eurofins kinase assay
Homo sapiens = species: Homo sapiens; test: Inhibition of human DNA-PK at 1 uM by Eurofins kinase assay
[25] = molecular target: Epidermal growth factor receptor (Homo sapiens) (UniProt P00533); test: Inhibition of human EGFR at 1 uM by Eurofins kinase assay
[26] = molecular target: Receptor-type tyrosine-protein kinase FLT3 (Homo sapiens) (UniProt P36888); test: Inhibition of human FLT3 at 1 uM by Eurofins kinase assay
[27] = system: Receptor-type tyrosine-protein kinase FLT3 (Homo sapiens), P36888 [D835Y]; test: Inhibition of human FLT3 D835Y mutant at 1 uM by Eurofins kinase assay
[28] = molecular target: Mitogen-activated protein kinase 8 (Homo sapiens) (UniProt P45983); test: Inhibition of human JNK1 at 1 uM by Eurofins kinase assay
[29] = molecular target: Platelet-derived growth factor receptor alpha (Homo sapiens) (UniProt P16234); test: Inhibition of human PDGFRalpha at 1 uM by Eurofins kinase assay
[30] = molecular target: Platelet-derived growth factor receptor beta (Homo sapiens) (UniProt P09619); test: Inhibition of human PDGFRbeta at 1 uM by Eurofins kinase assay
[31] = molecular target: Proto-oncogene tyrosine-protein kinase ROS (Homo sapiens) (UniProt P08922); test: Inhibition of human Ros at 1 uM by Eurofins kinase assay
[32] = molecular target: High affinity nerve growth factor receptor (Homo sapiens) (UniProt P04629); test: Inhibition of human TrkA at 1 uM by Eurofins kinase assay
[33] = molecular target: Serine/threonine-protein kinase WNK1 (Homo sapiens) (UniProt Q9H4A3); test: Inhibition of human WNK1 at 1 uM by Eurofins kinase assay
[34] = molecular target: Vascular endothelial growth factor receptor 2 (Homo sapiens, UniProt P35968); test: Inhibition of VEGFR2 (unknown origin) preincubated for 10 mins followed by addition of peptide solution by caliper mobility shift assay
[35] = molecular target: T1, Vascular endothelial growth factor receptor 1; test: Inhibition of FLT (unknown origin) preincubated for 10 mins followed by addition of peptide solution by caliper mobility shift assay
[36] = molecular target: Vascular endothelial growth factor receptor 3 (Homo sapiens, UniProt P35916); test: Inhibition of FLT4 (unknown origin) preincubated for 10 mins followed by addition of peptide solution by caliper mobility shift assay

T1 sequence (P17948 whole entry): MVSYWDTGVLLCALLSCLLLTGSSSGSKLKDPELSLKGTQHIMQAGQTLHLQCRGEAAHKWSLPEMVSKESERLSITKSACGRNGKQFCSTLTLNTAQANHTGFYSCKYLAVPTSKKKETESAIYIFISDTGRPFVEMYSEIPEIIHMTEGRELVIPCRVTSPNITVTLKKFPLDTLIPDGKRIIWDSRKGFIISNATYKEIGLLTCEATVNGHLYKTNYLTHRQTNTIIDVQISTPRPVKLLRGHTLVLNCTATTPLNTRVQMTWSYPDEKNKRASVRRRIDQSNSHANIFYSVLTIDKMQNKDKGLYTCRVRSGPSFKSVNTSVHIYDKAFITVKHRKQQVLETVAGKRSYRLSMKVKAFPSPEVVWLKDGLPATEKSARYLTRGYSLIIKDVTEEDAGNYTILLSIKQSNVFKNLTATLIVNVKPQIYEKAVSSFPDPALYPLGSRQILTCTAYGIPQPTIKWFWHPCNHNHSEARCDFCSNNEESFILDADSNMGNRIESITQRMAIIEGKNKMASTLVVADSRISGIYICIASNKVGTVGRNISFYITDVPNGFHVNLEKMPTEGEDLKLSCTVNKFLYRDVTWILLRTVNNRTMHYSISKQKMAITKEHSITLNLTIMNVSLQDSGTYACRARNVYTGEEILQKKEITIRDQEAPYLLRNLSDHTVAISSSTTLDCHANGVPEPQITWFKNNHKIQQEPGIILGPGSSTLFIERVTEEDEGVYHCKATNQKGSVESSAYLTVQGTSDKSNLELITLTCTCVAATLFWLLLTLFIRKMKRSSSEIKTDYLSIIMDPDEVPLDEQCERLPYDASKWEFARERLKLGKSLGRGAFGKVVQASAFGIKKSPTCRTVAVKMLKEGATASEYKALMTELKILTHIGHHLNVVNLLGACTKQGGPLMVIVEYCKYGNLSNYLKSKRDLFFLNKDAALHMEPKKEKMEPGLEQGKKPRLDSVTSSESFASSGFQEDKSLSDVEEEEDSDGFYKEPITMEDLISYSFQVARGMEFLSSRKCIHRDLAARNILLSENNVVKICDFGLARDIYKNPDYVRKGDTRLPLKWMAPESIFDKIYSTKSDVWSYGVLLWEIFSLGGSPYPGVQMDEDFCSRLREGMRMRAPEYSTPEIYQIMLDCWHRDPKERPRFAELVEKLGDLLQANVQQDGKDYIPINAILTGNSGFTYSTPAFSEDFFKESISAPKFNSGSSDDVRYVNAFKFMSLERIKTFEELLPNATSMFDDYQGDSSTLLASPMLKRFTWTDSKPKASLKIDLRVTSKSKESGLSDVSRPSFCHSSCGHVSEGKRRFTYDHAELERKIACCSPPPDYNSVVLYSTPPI
Epidermal growth factor receptor (Homo sapiens), sequence (P00533 whole entry): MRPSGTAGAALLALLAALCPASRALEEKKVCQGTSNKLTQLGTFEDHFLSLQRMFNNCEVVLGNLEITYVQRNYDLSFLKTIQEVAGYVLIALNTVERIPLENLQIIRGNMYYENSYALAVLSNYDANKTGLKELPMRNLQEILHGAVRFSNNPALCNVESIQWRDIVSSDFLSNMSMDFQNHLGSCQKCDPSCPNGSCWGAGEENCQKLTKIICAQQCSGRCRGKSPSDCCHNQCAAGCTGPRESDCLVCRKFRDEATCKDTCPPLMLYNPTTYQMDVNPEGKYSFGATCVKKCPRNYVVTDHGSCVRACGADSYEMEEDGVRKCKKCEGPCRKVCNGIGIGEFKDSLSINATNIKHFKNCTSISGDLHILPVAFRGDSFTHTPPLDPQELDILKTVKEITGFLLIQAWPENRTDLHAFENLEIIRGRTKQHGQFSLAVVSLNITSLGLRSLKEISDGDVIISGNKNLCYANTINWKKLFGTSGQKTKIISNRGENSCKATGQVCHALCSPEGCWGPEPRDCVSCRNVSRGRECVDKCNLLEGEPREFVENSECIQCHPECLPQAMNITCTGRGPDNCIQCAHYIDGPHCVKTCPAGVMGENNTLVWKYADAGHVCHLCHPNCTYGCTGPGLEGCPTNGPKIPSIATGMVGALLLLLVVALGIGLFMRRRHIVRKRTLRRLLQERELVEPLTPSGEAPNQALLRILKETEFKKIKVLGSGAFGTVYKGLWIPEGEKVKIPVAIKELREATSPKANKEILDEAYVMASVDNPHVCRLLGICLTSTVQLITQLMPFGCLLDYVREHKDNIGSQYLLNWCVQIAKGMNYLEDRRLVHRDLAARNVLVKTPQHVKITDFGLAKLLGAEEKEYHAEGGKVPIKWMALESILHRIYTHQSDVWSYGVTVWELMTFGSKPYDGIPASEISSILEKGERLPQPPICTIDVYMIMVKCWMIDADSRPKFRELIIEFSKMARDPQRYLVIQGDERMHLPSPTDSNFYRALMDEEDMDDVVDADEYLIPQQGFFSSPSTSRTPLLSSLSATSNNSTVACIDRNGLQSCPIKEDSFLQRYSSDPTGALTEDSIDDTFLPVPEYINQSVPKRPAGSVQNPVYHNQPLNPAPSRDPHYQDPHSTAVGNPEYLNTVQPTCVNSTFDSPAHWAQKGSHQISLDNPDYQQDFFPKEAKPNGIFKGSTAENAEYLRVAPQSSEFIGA
Vascular endothelial growth factor receptor 2, sequence (P35968 whole entry): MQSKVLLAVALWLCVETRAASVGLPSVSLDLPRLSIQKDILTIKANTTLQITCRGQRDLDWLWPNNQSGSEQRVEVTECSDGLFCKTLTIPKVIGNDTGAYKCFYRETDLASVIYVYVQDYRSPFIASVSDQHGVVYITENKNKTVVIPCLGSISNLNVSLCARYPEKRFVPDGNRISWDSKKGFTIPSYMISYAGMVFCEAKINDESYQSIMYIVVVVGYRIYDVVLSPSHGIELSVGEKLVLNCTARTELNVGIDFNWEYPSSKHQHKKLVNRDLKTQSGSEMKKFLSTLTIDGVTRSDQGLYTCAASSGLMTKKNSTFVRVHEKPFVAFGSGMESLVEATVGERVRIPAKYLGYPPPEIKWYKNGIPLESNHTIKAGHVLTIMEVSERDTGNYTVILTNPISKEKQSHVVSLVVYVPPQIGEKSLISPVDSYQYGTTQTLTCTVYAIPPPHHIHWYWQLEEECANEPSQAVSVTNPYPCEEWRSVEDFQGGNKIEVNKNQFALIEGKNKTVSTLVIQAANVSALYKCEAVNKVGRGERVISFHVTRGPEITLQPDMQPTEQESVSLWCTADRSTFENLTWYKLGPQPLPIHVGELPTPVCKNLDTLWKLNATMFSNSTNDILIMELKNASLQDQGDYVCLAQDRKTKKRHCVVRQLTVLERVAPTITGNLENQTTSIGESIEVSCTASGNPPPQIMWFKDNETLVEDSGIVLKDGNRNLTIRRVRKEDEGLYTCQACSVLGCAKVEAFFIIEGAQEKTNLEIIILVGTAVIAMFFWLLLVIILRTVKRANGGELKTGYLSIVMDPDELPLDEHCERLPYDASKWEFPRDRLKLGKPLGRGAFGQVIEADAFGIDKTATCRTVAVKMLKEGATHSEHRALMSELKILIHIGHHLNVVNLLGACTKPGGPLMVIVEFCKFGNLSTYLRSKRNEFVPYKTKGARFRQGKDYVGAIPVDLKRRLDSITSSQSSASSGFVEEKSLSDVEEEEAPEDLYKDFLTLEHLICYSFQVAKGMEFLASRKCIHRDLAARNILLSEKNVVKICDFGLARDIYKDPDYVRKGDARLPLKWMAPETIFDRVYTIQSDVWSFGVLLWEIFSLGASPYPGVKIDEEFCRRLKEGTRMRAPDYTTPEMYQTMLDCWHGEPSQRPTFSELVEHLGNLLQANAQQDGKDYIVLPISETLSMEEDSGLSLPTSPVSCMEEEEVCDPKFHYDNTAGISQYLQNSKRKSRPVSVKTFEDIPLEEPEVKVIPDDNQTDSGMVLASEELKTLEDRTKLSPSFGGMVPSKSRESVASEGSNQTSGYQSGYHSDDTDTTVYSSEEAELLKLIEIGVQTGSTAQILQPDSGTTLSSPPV
Platelet-derived growth factor receptor alpha (Homo sapiens), sequence (P16234 whole entry): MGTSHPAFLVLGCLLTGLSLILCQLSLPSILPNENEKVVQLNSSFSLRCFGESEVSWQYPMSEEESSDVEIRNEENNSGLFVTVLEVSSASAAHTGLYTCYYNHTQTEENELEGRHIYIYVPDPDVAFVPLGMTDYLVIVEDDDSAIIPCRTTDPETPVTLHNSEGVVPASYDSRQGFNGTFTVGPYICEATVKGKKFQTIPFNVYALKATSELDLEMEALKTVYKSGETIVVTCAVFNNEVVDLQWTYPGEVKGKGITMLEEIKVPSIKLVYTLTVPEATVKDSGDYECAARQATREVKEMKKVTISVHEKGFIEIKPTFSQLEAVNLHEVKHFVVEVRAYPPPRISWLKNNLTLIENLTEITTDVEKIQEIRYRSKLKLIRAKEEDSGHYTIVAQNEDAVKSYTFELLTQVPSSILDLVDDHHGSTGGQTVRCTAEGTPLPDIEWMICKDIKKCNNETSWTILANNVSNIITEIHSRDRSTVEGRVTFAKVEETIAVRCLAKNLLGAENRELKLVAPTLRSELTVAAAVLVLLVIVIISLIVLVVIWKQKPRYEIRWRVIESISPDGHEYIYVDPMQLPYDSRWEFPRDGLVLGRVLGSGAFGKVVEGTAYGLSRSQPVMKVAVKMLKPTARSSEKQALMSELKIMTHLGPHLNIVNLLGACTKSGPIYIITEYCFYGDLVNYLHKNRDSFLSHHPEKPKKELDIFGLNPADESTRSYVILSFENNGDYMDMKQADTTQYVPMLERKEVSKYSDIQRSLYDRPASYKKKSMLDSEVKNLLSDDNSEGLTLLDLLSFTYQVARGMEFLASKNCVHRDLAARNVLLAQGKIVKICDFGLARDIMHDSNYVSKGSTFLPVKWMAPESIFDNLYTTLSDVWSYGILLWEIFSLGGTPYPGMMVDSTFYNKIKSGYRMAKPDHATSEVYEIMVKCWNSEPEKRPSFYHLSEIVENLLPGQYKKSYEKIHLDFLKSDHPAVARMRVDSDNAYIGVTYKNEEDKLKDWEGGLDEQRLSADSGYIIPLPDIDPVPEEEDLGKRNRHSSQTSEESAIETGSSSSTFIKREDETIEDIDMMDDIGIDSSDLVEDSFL

In the case of `O=C(Nc1ccc(Oc2ccnc(NC(=O)N3CC(O)C3)c2)c(F)c1)c1cn(-c2cccnc2)nn1`, the Cmax [1] is reported as 26900 ng/mL, the IC50 (MOLM-14) is reported as 220 nM and the IC50 (THP-1) is reported as 10.8 µM. The inhibition (MOLM-13 [2]) was “Dose-dependent-effect”, the Activity (MOLM-13 [3]) was “Not active; Compound Barely Affect Stat5 Level” and the Activity (MOLM-13 [4]) was 79.4%. For the same compound, the Activity (MOLM-13 [5]) was 4.33%, the viability at 3 µM (MOLM-13 [6]) was 50.6% and the Activity (MOLM-13 [7]) was 33.6%. It also gave an Activity (MOLM-13 [8]) of 9.44%, an AUC(0-t) at 48 h [9] of 59300 ng·h/mL and an MRT last at 48 h [10] of 3.01 h. It also gave a Cmax [11] of 8020 ng/mL, a Tmax [12] of 1.83 h and an AUC(0-t) at 48 h [13] of 45600 ng·h/mL. The MRT last at 48 h [14] was 4.49 h, the bioavailability [15] was 19.2% and the Activity (MOLM-13 [16]) was “Active”. For the same compound, the Activity [17] was “Non-toxic”, the Activity [18] was “Non-toxic” and the Activity [19] was “Non-toxic”. The Activity [20] was 22%, the Activity [21] was 22% and the inhibition [22] was “inactive”. For the same compound, the inhibition [23] was “inactive”, the inhibition [24] was “inactive” and the inhibition (Homo sapiens) was “inactive”. For the same compound, the inhibition [25] was “inactive”, the inhibition [26] was “inactive” and the inhibition [27] was “inactive”. For the same compound, the inhibition [28] was “inactive”, the inhibition [29] was “inactive” and the inhibition [30] was “inactive”. For the same compound, the inhibition [31] was “inactive”, the inhibition [32] was “inactive” and the inhibition [33] was “inactive”. It also gave an IC50 [34] of 112 nM, an IC50 [35] of 588 nM and an IC50 [36] of 475 nM.
